Experimental data as given in ChEMBL document CHEMBL2074568, “Characterization of the transport properties of human multidrug resistance protein 7 (MRP7, ABCC10)” (Mol Pharmacol, 2003).
Blank lines part the entries; values can stand above or below the molecule they belong to.

Tests used:
Format in all cases: functional, cell membranes
Parameters in all cases: scale not given: the % may be the effect or the level left
[1] = molecular target: T1, ATP-binding cassette sub-family C member 10 (Homo sapiens) (UniProt Q5T3U5); test: TP_TRANSPORTER: inhibition of E217betaG uptake (E217betaG: 1 uM, beta-Estradiol: 100 uM) in membrane vesicles from MRP7-expressing HEK293 cells; conditions: Membrane vesicle
T1 sequence (whole entry): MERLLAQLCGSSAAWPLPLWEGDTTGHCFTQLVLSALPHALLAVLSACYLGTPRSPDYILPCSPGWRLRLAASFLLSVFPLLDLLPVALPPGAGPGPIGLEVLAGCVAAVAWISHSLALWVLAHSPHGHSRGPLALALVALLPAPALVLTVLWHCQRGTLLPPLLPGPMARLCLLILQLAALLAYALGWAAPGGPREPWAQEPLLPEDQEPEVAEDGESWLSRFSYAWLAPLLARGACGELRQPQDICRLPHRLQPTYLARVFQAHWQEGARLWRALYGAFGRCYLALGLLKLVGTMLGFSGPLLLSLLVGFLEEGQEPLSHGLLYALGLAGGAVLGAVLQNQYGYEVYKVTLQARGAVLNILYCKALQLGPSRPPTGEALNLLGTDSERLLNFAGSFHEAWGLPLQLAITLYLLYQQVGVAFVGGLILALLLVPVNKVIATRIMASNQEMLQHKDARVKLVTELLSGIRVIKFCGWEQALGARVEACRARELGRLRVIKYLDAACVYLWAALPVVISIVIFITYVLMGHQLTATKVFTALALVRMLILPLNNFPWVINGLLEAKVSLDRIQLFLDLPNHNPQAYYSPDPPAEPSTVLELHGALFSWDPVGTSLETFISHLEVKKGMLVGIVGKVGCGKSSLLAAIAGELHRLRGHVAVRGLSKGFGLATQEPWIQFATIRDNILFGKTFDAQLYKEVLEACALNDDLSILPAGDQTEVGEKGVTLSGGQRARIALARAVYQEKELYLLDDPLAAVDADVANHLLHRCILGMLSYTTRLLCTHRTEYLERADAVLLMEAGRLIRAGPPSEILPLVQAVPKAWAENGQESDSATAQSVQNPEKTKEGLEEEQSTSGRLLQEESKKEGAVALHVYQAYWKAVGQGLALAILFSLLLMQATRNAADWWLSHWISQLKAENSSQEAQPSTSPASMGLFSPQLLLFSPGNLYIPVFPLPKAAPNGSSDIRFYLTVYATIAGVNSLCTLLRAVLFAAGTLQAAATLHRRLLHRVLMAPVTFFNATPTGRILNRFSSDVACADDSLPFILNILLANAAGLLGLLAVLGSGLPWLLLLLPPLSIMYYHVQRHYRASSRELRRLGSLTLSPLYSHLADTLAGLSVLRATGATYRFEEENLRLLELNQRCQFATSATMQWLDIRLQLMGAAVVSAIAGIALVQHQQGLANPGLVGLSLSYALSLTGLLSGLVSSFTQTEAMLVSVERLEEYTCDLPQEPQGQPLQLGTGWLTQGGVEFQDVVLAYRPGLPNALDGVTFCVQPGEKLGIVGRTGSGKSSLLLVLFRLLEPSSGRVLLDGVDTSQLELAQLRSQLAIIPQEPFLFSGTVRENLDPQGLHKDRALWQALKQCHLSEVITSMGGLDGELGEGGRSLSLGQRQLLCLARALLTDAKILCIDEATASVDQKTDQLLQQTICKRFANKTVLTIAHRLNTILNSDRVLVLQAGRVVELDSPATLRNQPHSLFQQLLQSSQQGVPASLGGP

[2] = molecular target: T1, ATP-binding cassette sub-family C member 10 (Homo sapiens); test: TP_TRANSPORTER: inhibition of E217betaG uptake (E217betaG: 1 uM, Estradiol-3-glucuronide: 100 uM) in membrane vesicles from MRP7-expressing HEK293 cells; conditions: Membrane vesicle
[3] = molecular target: T1, ATP-binding cassette sub-family C member 10 (Homo sapiens); test: TP_TRANSPORTER: inhibition of E217betaG uptake (E217betaG: 1 uM, 17alpha-Ethynyl-17beta-Estradiol: 100 uM) in membrane vesicles from MRP7-expressing HEK293 cells; conditions: Membrane vesicle
[4] = molecular target: T1, ATP-binding cassette sub-family C member 10 (Homo sapiens); test: TP_TRANSPORTER: inhibition of E217betaG uptake (E217betaG: 1 uM, MTX:100uM) in membrane vesicles from MRP7-expressing HEK293 cells; conditions: Membrane vesicle
[5] = molecular target: T1, ATP-binding cassette sub-family C member 10 (Homo sapiens); test: TP_TRANSPORTER: inhibition of E217betaG uptake (E217betaG: 1 uM, VP-16: 30 uM) in membrane vesicles from MRP7-expressing HEK293 cells; conditions: Membrane vesicle
[6] = molecular target: T1, ATP-binding cassette sub-family C member 10 (Homo sapiens); test: TP_TRANSPORTER: inhibition of E217betaG uptake (E217betaG: 1 uM, Taxol: 30 uM) in membrane vesicles from MRP7-expressing HEK293 cells; conditions: Membrane vesicle
[7] = molecular target: T1, ATP-binding cassette sub-family C member 10 (Homo sapiens); test: TP_TRANSPORTER: inhibition of E217betaG uptake (E217betaG: 1 uM, E2 3SO4 17betaG: 100uM) in membrane vesicles from MRP7-expressing HEK293 cells; conditions: Membrane vesicle
[8] = molecular target: T1, ATP-binding cassette sub-family C member 10 (Homo sapiens); test: TP_TRANSPORTER: inhibition of E217betaG uptake (E217betaG: 1 uM, Zaprinast: 100uM) in membrane vesicles from MRP7-expressing HEK293 cells; conditions: Membrane vesicle
[9] = molecular target: T1, ATP-binding cassette sub-family C member 10 (Homo sapiens); test: TP_TRANSPORTER: inhibition of E217betaG uptake (E217betaG: 1 uM, Glycocholate: 100uM) in membrane vesicles from MRP7-expressing HEK293 cells; conditions: Membrane vesicle
[10] = molecular target: T1, ATP-binding cassette sub-family C member 10 (Homo sapiens); test: TP_TRANSPORTER: inhibition of E217betaG uptake (E217betaG: 1 uM, DNP-SG:10uM) in membrane vesicles from MRP7-expressing HEK293 cells; conditions: Membrane vesicle
[11] = molecular target: T1, ATP-binding cassette sub-family C member 10 (Homo sapiens); test: TP_TRANSPORTER: inhibition of E217betaG uptake (E217betaG: 1 uM, Verapamil: 100 uM) in membrane vesicles from MRP7-expressing HEK293 cells; conditions: Membrane vesicle
[12] = molecular target: T1, ATP-binding cassette sub-family C member 10 (Homo sapiens); test: TP_TRANSPORTER: inhibition of E217betaG uptake (E217betaG: 1 uM, 16alpha,17beta-Estriol 16-(beta-D-glucuronide): 100 uM) in membrane vesicles from MRP7-expressing HEK293 cells; conditions: Membrane vesicle
[13] = molecular target: T1, ATP-binding cassette sub-family C member 10 (Homo sapiens); test: TP_TRANSPORTER: inhibition of E217betaG uptake (E217betaG: 1 uM, Sildefafil:100uM) in membrane vesicle from MRP7-expressing HEK293 cells
[14] = molecular target: T1, ATP-binding cassette sub-family C member 10 (Homo sapiens); test: TP_TRANSPORTER: inhibition of E217betaG uptake (E217betaG: 1 uM, LTC4:1uM) in membrane vesicles from MRP7-expressing HEK293 cells; conditions: Membrane vesicle
[15] = molecular target: T1, ATP-binding cassette sub-family C member 10 (Homo sapiens); test: TP_TRANSPORTER: inhibition of E217betaG uptake (E217betaG: 1 uM, Doxorubicin: 30 uM) in membrane vesicles from MRP7-expressing HEK293 cells; conditions: Membrane vesicle
[16] = molecular target: T1, ATP-binding cassette sub-family C member 10 (Homo sapiens); test: TP_TRANSPORTER: inhibition of E217betaG uptake (E217betaG: 1 uM, 16alpha,17beta-Estriol 3-(beta-D-glucuronide): 100 uM) in membrane vesicles from MRP7-expressing HEK293 cells; conditions: Membrane vesicle
[17] = molecular target: T1, ATP-binding cassette sub-family C member 10 (Homo sapiens); test: TP_TRANSPORTER: inhibition of E217betaG uptake (E217betaG: 1 uM, Trequinsin: 100 uM) in membrane vesicles from MRP7-expressing HEK293 cells; conditions: Membrane vesicle
[18] = molecular target: T1, ATP-binding cassette sub-family C member 10 (Homo sapiens); test: TP_TRANSPORTER: inhibition of E217betaG uptake (E217betaG: 1 uM, Vincristine: 30 uM) in membrane vesicles from MRP7-expressing HEK293 cells; conditions: Membrane vesicle
[19] = molecular target: T1, ATP-binding cassette sub-family C member 10 (Homo sapiens); test: TP_TRANSPORTER: inhibition of E217betaG uptake (E217betaG: 1 uM, Glycholithocholate-3-sulfate: 30 uM) in membrane vesicles from MRP7-expressing HEK293 cells; conditions: Membrane vesicle
[20] = molecular target: T1, ATP-binding cassette sub-family C member 10 (Homo sapiens); test: TP_TRANSPORTER: inhibition of E217betaG uptake (E217betaG: 1 uM, 16alpha,17beta-Estriol 3-sulfate: 100 uM) in membrane vesicles from MRP7-expressing HEK293 cells; conditions: Membrane vesicle
[21] = molecular target: T1, ATP-binding cassette sub-family C member 10 (Homo sapiens); test: TP_TRANSPORTER: inhibition of E217betaG uptake (E217betaG: 1 uM, Sulfinpyrazone:30uM) in membrane vesicles from MRP7-expressing HEK293 cells; conditions: Membrane vesicle

Activity [1]: 60.7%
SMILES: C[C@]12CC[C@@H]3c4ccc(O)cc4CC[C@H]3[C@@H]1CC[C@@H]2O

SMILES: C[C@]12CC[C@@H]3c4ccc(O[C@@H]5O[C@H](C(=O)O)[C@@H](O)[C@H](O)[C@H]5O)cc4CC[C@H]3[C@@H]1CC[C@@H]2O
Activity [2]: 60.1%

Activity [3]: 51.4%
SMILES: C#C[C@]1(O)CC[C@H]2[C@@H]3CCc4cc(O)ccc4[C@H]3CC[C@@]21C

Activity [4]: 74%
SMILES: CN(Cc1cnc2nc(N)nc(N)c2n1)c1ccc(C(=O)N[C@@H](CCC(=O)O)C(=O)O)cc1

Activity [5]: 49.5%
SMILES: COc1cc([C@@H]2c3cc4c(cc3[C@@H](O[C@@H]3O[C@@H]5CO[C@@H](C)O[C@H]5[C@H](O)[C@H]3O)[C@H]3COC(=O)[C@H]23)OCO4)cc(OC)c1O

Activity [6]: 22.1%
SMILES: CC(=O)O[C@H]1C(=O)[C@@]2(C)[C@H]([C@H](OC(=O)c3ccccc3)[C@]3(O)C[C@H](OC(=O)[C@H](O)[C@@H](NC(=O)c4ccccc4)c4ccccc4)C(C)=C1C3(C)C)[C@]1(OC(C)=O)CO[C@@H]1C[C@@H]2O

Activity [7]: 45.1%
SMILES: C[C@]12CC[C@@H]3c4ccc(OS(=O)(=O)O)cc4CC[C@H]3[C@@H]1CC[C@@H]2O[C@@H]1O[C@H](C(=O)O)[C@@H](O)[C@H](O)[C@H]1O

Activity [8]: 48.3%
SMILES: CCCOc1ccccc1-c1nc2[nH]nnc2c(=O)[nH]1

Activity [9]: 58.4%
SMILES: C[C@H](CCC(=O)NCC(=O)O)[C@H]1CC[C@H]2[C@@H]3[C@H](O)C[C@@H]4C[C@H](O)CC[C@]4(C)[C@H]3C[C@H](O)[C@]12C

SMILES: N[C@@H](CCC(=O)N[C@H](CSc1ccc([N+](=O)[O-])cc1[N+](=O)[O-])C(=O)NCC(=O)O)C(=O)O
Activity [10]: 46.4%

Activity [11]: 62.3%
SMILES: COc1ccc(CCN(C)CCCC(C#N)(c2ccc(OC)c(OC)c2)C(C)C)cc1OC (stereo unspecified)

SMILES: C[C@]12CC[C@@H]3c4ccc(O)cc4CC[C@H]3[C@@H]1C[C@@H](O[C@@H]1O[C@H](C(=O)O)[C@@H](O)[C@H](O)[C@H]1O)[C@@H]2O
Activity [12]: 53%

Activity [13]: 41%
SMILES: CCCc1nn(C)c2c(=O)[nH]c(-c3cc(S(=O)(=O)N4CCN(C)CC4)ccc3OCC)nc12

Activity [14]: 40.4%
SMILES: CCCCC/C=C\C\C=C/C=C/C=C/[C@@H](SC[C@@H](NC(=O)CC[C@H](N)C(=O)O)C(=O)NCC(=O)O)[C@@H](O)CCCC(=O)O

Activity [15]: 18.2%
SMILES: COc1cccc2c1C(=O)c1c(O)c3c(c(O)c1C2=O)C[C@@](O)(C(=O)CO)C[C@@H]3O[C@H]1C[C@H](N)[C@H](O)[C@H](C)O1

SMILES: C[C@]12CC[C@@H]3c4ccc(O[C@@H]5O[C@H](C(=O)O)[C@@H](O)[C@H](O)[C@H]5O)cc4CC[C@H]3[C@@H]1C[C@@H](O)[C@@H]2O
Activity [16]: 58.5%

Activity [17]: 44.3%
SMILES: COc1cc2c(cc1OC)-c1c/c(=N\c3c(C)cc(C)cc3C)n(C)c(=O)n1CC2

Activity [18]: 18.4%
SMILES: CC[C@]1(O)C[C@H]2CN(CCc3c([nH]c4ccccc34)[C@@](C(=O)OC)(c3cc4c(cc3OC)N(C=O)[C@H]3[C@@](O)(C(=O)OC)[C@H](OC(C)=O)[C@]5(CC)C=CCN6CC[C@]43[C@@H]65)C2)C1

SMILES: C[C@H](CCC(=O)NCC(=O)O)[C@H]1CC[C@H]2[C@@H]3CC[C@@H]4C[C@H](OS(=O)(=O)O)CC[C@]4(C)[C@H]3CC[C@]12C
Activity [19]: 41.8%

Activity [20]: 49.4%
SMILES: C[C@]12CC[C@@H]3c4ccc(OS(=O)(=O)O)cc4CC[C@H]3[C@@H]1C[C@@H](O)[C@@H]2O

Activity [21]: 39.5%
SMILES: O=C1C(CC[S+]([O-])c2ccccc2)C(=O)N(c2ccccc2)N1c1ccccc1 (stereo unspecified)
